target: IgE-Tb / FcεRIα-Y131A-AF488 (Homo sapiens, UniProt P01854); experiment: IgE-Tb / FcεRIα-Y131A-AF488 FRET assay (protocol for examples 1 to 233); format: binding; conditions: examples 1 to 233: 5 nM IgE-Tb, 25 nM FcεRIα-Y131A-AF488, incubated 2 hours at room temperature; read-out: Y131A FRET IC50 range
How it was run: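 Compounds (top final concentration usually 10 μM, 3-fold, 10 points, 2% DMSO) incubated 2 h at room temperature with IgE-Tb (5 nM) and FcεRIα-Y131A-AF488 (25 nM). Background from 200 nM unlabelled receptor subtracted; FRET ratio 520/495 nm after 330 nm excitation gave percent inhibition, fitted four-parameter for IC50.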

Sequence of IgE-Tb / FcεRIα-Y131A-AF488 (P01854 1-427 limits assumed, stated change not applied): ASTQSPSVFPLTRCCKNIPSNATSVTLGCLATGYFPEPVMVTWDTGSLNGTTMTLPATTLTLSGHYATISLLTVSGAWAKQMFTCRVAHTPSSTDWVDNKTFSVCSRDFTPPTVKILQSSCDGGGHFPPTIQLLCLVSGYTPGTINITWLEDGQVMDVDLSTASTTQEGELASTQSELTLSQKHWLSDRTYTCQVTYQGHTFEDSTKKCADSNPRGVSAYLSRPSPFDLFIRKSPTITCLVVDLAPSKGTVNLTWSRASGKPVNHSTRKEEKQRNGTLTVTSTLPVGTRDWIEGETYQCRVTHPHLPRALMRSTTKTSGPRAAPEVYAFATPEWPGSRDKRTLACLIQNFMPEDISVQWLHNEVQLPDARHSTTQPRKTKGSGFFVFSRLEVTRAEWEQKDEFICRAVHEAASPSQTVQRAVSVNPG

Structure (SMILES)	IC50 [nM]
O=C(NCC1CC1)c1c(NC(=O)C2CC2)sc2c1CC(Nc1ncccn1)CC2 (stereo not shown) [Example 191, 2-(Cyclopropanecarbonylamino)-N-(cyclopropylmethyl)-5-(pyrimidin-2-ylamino)-4,5,6,7-tetrahydrobenzothiophene-3-carboxamide]	< 1000
O=C(NCC1CC1)c1c(NC(=O)C2CC2)sc2c1CC(Nc1nnco1)CC2 (stereo not shown) [Example 192, 2-(Cyclopropanecarbonylamino)-N-(cyclopropylmethyl)-5-(1,3,4-oxadiazol-2-ylamino)-4,5,6,7-tetrahydrobenzothiophene-3-carboxamide]	< 1000
Cc1cc(Nc2nncn2C2CCc3sc(NC(=O)C4CC4)c(C(=O)NC4CC(F)C4)c3C2)n(C)n1 (stereo not shown) [Example 193, 2-(cyclopropanecarbonylamino)-5-[3-[(2,5-dimethylpyrazol-3-yl)amino]-1,2,4-triazol-4-yl]-N-(3-fluorocyclobutyl)-4,5,6,7-tetrahydrobenzothiophene-3-carboxamide]	< 1000
Cc1ccc(N2C(=O)CN=C2NC2CCc3sc(NC(=O)C4CC4)c(C(=O)NCC4CC4)c3C2)cc1 (stereo not shown) [Example 194, 2-(Cyclopropanecarbonylamino)-N-(cyclopropylmethyl)-5-[[5-oxo-1-(p-tolyl)-4H-imidazol-2-yl]amino]-4,5,6,7-tetrahydrobenzothiophene-3-carboxamide]	1000 to 10000
CCN(C)c1c(NC2CCc3sc(NC(=O)C4CC4)c(C(=O)NCC4CC4)c3C2)c(=O)c1=O (stereo not shown) [Example 195, 2-(Cyclopropanecarbonylamino)-N-(cyclopropylmethyl)-5-[[2-[ethyl(methyl)amino]-3,4-dioxo-cyclobuten-1-yl]amino]-4,5,6,7-tetrahydrobenzothiophene-3-carboxamide]	< 1000
CS(=N)(=O)NC1CCc2sc(NC(=O)C3CC3)c(C(=O)NCC3CC3)c2C1 (stereo not shown) [Example 196, 2-(Cyclopropanecarbonylamino)-N-(cyclopropylmethyl)-5-[(methylsulfonimidoyl)amino]-4,5,6,7-tetrahydrobenzothiophene-3-carboxamide]	1000 to 10000
CC(=NC#N)NC1CCc2sc(NC(=O)C3CC3)c(C(=O)NCC3CC3)c2C1 (stereo not shown) [Example 197, 5-[[N-Cyano-C-methyl-carbonimidoyl]amino]-2-(cyclopropanecarbonylamino)-N-(cyclopropylmethyl)-4,5,6,7-tetrahydrobenzothiophene-3-carboxamide]	< 1000
O=C(NCC1CC1)c1c(NC(=O)C2CC2)sc2c1CC(n1cnnn1)CC2 (stereo not shown) [Example 198, 2-(Cyclopropanecarbonylamino)-N-(cyclopropylmethyl)-5-(tetrazol-1-yl)-4,5,6,7-tetrahydrobenzothiophene-3-carboxamide]	< 1000
Cc1cc(Nc2nncn2C2CCc3sc(NC(=O)C4CC4)c(C(=O)NCC(C)(C)F)c3C2)n(C)n1 (stereo not shown) [Example 200, 2-(cyclopropanecarbonylamino)-5-[3-[(2,5-dimethylpyrazol-3-yl)amino]-1,2,4-triazol-4-yl]-N-(2-fluoro-2-methyl-propyl)-4,5,6,7-tetrahydrobenzothiophene-3-carboxamide]	< 1000
O=C(NCC1CC1)c1c(NC(=O)C2CC2)sc2c1CC(N1CCOCC1)CC2 (stereo not shown) [Example 201, 2-(Cyclopropanecarbonylamino)-N-(cyclopropylmethyl)-5-morpholino-4,5,6,7-tetrahydrobenzothiophene-3-carboxamide]	1000 to 10000
CCNc1nnc(C(F)(F)F)n1C1CCc2sc(NC(=O)C3CC3)c(C(=O)NCC3CC3)c2C1 (stereo not shown) [Example 202, 2-(Cyclopropanecarbonylamino)-N-(cyclopropylmethyl)-5-[3-(ethylamino)-5-(trifluoromethyl)-1,2,4-triazol-4-yl]-4,5,6,7-tetrahydrobenzothiophene-3-carboxamide]	1000 to 10000
O=C(NCC1CC1)c1c(NC(=O)C2CC2)sc2c1CC(Nc1nc(=O)cc[nH]1)CC2 (stereo not shown) [Example 203, 2-(Cyclopropanecarbonylamino)-N-(cyclopropylmethyl)-5-[(4-oxo-1H-pyrimidin-2-yl)amino]-4,5,6,7-tetrahydrobenzothiophene-3-carboxamide]	< 1000
CC(C)NS(=O)(=O)NC1CCc2sc(NC(=O)C3CC3)c(C(=O)NCC3CC3)c2C1 (stereo not shown) [Example 204, 2-(Cyclopropanecarbonylamino)-N-(cyclopropylmethyl)-5-(isopropylsulfamoylamino)-4,5,6,7-tetrahydrobenzothiophene-3-carboxamide]	1000 to 10000
N#CN=C(NC1CCc2sc(NC(=O)C3CC3)c(C(=O)NCC3CC3)c2C1)NN1CCOCC1 (stereo not shown) [Example 205, 5-[[N′-Cyano-N-morpholino-carbamimidoyl]amino]-2-(cyclopropanecarbonylamino)-N-(cyclopropylmethyl)-4,5,6,7-tetrahydrobenzothiophene-3-carboxamide]	1000 to 10000
CC(=O)NC1CCc2sc(NC(=O)C3CC3)c(C(=O)NCC3CC3)c2C1 (stereo not shown) [Example 206, 5-Acetamido-2-(cyclopropanecarbonylamino)-N-(cyclopropylmethyl)-4,5,6,7-tetrahydrobenzothiophene-3-carboxamide]	1000 to 10000
CS(=O)(=O)NC1CCc2sc(NC(=O)C3CC3)c(C(=O)NCC3CC3)c2C1 (stereo not shown) [Example 207, 2-(Cyclopropanecarbonylamino)-N-(cyclopropylmethyl)-5-(methanesulfonamido)-4,5,6,7-tetrahydrobenzothiophene-3-carboxamide]	< 1000
CONC(=NC#N)NC1CCc2sc(NC(=O)C3CC3)c(C(=O)NCC3CC3)c2C1 (stereo not shown) [Example 208, 5-[[N′-Cyano-N-methoxy-carbamimidoyl]amino]-2-(cyclopropanecarbonylamino)-N-(cyclopropylmethyl)-4,5,6,7-tetrahydrobenzothiophene-3-carboxamide]	< 1000
COc1ccc(NC(=O)NC2CCc3sc(NC(=O)C4CC4)c(C(=O)NCC(C)C)c3C2)cc1 (stereo not shown) [Example 209, 2-(Cyclopropanecarbonylamino)-N-isobutyl-5-[(4-methoxyphenyl)carbamoylamino]-4,5,6,7-tetrahydrobenzothiophene-3-carboxamide]	< 1000
O=C(NCC1CC1)c1c(NC(=O)C2CC2)sc2c1CC(Nc1nc(=O)cc(C(F)(F)F)[nH]1)CC2 (stereo not shown) [Example 210, 2-(Cyclopropanecarbonylamino)-N-(cyclopropylmethyl)-5-[[4-oxo-6-(trifluoromethyl)-1H-pyrimidin-2-yl]amino]-4,5,6,7-tetrahydrobenzothiophene-3-carboxamide]	< 1000
CC1CCN(C(=O)c2c(NC(=O)C3CC3)sc3c2CC(NS(C)(=O)=O)CC3)C1 (stereo not shown) [Example 211, N-[5-(Methanesulfonamido)-3-(3-methylpyrrolidine-1-carbonyl)-4,5,6,7-tetrahydrobenzothiophen-2-yl]cyclopropanecarboxamide]	1000 to 10000
CCCNC(=O)c1c(NC(=O)C2CC2)sc2c1CC(NC(=O)Nc1ccc(OC(F)(F)F)cc1)CC2 (stereo not shown) [Example 212, 2-(Cyclopropanecarbonylamino)-N-propyl-5-[[4-(trifluoromethoxy)phenyl]carbamoylamino]-4,5,6,7-tetrahydrobenzothiophene-3-carboxamide]	< 1000
CC(C)C(=O)Nc1nncn1[C@H]1CCc2sc(NC(=O)C3CC3)c(C(=O)NCC3CC3)c2C1 [Example 213, (5S)-2-(cyclopropanecarbonylamino)-N-(cyclopropylmethyl)-5-[3-(2-methylpropanoylamino)-1,2,4-triazol-4-yl]-4,5,6,7-tetrahydrobenzothiophene-3-carboxamide]	< 1000
Cc1cc(N(C)c2nncn2[C@H]2CCc3sc(NC(=O)C4CC4)c(C(=O)NCC4CC4)c3C2)n(C)n1 [Example 214, (5S)-2-(cyclopropanecarbonylamino)-N-(cyclopropylmethyl)-5-[3-[(2,5-dimethylpyrazol-3-yl)-methyl-amino]-1,2,4-triazol-4-yl]-4,5,6,7-tetrahydrobenzothiophene-3-carboxamide]	1000 to 10000
Cc1cc(Nc2nncn2[C@H]2CCc3sc(NC(=O)C4CC4)c(S(=O)(=O)NCC4CC4)c3C2)n(C)n1 [Example 215, N-[(5S)-3-(cyclopropylmethylsulfamoyl)-5-[3-[(2,5-dimethylpyrazol-3-yl)amino]-1,2,4-triazol-4-yl]-4,5,6,7-tetrahydrobenzothiophen-2-yl]cyclopropanecarboxamide]	< 1000
Cc1nnc(-c2ncn([C@H]3CCc4sc(NC(=O)C5CC5)c(C(=O)NCC5CC5)c4C3)c2N)o1 [Example 216, (5S)-5-[5-amino-4-(5-methyl-1,3,4-oxadiazol-2-yl)imidazol-1-yl]-2-(cyclopropanecarbonylamino)-N-(cyclopropylmethyl)-4,5,6,7-tetrahydrobenzothiophene-3-carboxamide]	< 1000
Cc1cc(Nc2nncn2[C@H]2CCc3sc(NC(=O)C4CC4)c(C(=O)NCC4CC4)c3C2)[nH]n1 [Example 217, (5S)-2-(cyclopropanecarbonylamino)-N-(cyclopropylmethyl)-5-[3-[(3-methyl-1H-pyrazol-5-yl)amino]-1,2,4-triazol-4-yl]-4,5,6,7-tetrahydrobenzothiophene-3-carboxamide]	< 1000
Cc1nn(C)cc1Nc1nncn1[C@H]1CCc2sc(NC(=O)C3CC3)c(C(=O)NCC3CC3)c2C1 [Example 218, (5S)-2-(cyclopropanecarbonylamino)-N-(cyclopropylmethyl)-5-[3-[(1,3-dimethylpyrazol-4-yl)amino]-1,2,4-triazol-4-yl]-4,5,6,7-tetrahydrobenzothiophene-3-carboxamide]	< 1000
Cn1nc(C2CC2)cc1Nc1nncn1[C@H]1CCc2sc(NC(=O)C3CC3)c(C(=O)NCC3CC3)c2C1 [Example 219, (5S)-2-(cyclopropanecarbonylamino)-N-(cyclopropylmethyl)-5-[3-[(5-cyclopropyl-2-methyl-pyrazol-3-yl)amino]-1,2,4-triazol-4-yl]-4,5,6,7-tetrahydrobenzothiophene-3-carboxamide]	< 1000

Source: patent publication US12018021B2 (UCB Biopharma SRL, priority 2018, dated 2024)
